Measured values from article PMC6836034, “The Effect of Silymarin Flavonolignans and Their Sulfated Conjugates on Platelet Aggregation and Blood Vessels Ex Vivo” (Nutrients, 2019).

Molecular target: T1, COX-1 (cyclooxygenase-1) (Ovis aries, UniProt P05979)
T1 construct: gene PTGS1
T1 sequence (P05979 25-600): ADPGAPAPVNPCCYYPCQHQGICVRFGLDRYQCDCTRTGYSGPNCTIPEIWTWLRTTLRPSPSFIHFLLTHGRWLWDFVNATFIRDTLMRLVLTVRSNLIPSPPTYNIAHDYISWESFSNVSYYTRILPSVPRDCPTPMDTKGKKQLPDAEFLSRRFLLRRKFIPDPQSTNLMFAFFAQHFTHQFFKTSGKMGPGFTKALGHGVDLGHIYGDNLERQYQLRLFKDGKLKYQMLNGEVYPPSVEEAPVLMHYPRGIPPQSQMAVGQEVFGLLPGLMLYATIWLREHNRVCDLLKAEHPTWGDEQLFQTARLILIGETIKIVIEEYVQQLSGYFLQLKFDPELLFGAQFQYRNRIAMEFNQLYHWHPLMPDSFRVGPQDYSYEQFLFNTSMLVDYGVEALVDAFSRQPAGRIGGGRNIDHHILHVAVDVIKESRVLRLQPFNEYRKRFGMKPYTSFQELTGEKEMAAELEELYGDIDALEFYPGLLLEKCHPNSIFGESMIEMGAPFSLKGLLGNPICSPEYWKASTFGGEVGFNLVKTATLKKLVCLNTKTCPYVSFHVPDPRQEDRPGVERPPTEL
Assay: biochemical

- IC50: 25.2 ± 10.4 µM
Compound: COc1cc(C2Oc3cc(-c4oc5cc(O)cc(O)c5c(=O)c4O)ccc3OC2CO)ccc1O (racemic) [2,3-dehydrosilybin]
